Measured values from patent US9120815B2, “Solid state forms of macrocyclic kinase inhibitors” (Tragara Pharmaceuticals, Inc., priority 2010, dated 2015).
“Also recorded” adds a separate entry of the source.

Key:
Type in all cases: physicochemical
[1] = Stability in humidity chamber 40° C./75% R.H. (XRPD, HPLC); details: 2 weeks
Procedure: After 2 days, the solids were isolated by filtration under vacuum at RT to be characterised by XRPD analysis. Each new crystalline solid phase detected was characterised by ^1H NMR and TGA-DSC analyses in order to determine if salt formation had occurred and whether the material was a solvate. At this stage, each salt identified was then analysed by HPLC to determine the chemical purity prior to being stored in the humidity chamber (40° C./75% R.H.) to assess its stability.

[2] = Solid state stability at ambient conditions
[3] = Gravimetric Vapour Sorption (GVS) at 25° C.
Procedure: Sorption isotherms were obtained using a SMS DVS Intrinsic moisture sorption analyser, controlled by SMS Analysis Suite software. The sample temperature was maintained at 25° C. by the instrument controls. The humidity was controlled by mixing streams of dry and wet nitrogen, with a total flow rate of 200 ml.min^−1. The relative humidity was measured by a calibrated Rotronic probe (dynamic range of 1.0-100% RH), located near the sample. The weight change, (mass relaxation) of the sample as a function of % RH was constantly monitored by the microbalance (accuracy ±0.005 mg). Typically 5-20 mg of sample was placed in a tared mesh stainless steel basket under ambient conditions. The sample was loaded and unloaded at 40% RH and 25° C. (typical room conditions). A moisture sorption isotherm was performed as outlined below (2 scans giving 1 complete cycle). The standard isotherm was performed at 25° C. at 10% RH intervals over a 0.5-90% RH range. The sample was recovered after completion of the isotherm and re-analysed by XRPD.

[4] = Polymorph screen: maturation in solvents, XRPD; details: for XPRD Characterisation after maturation: 3 days
Procedure: An initial polymorphism screen was performed for the fumarate and citrate salts using 10 common class II and III organic solvents (with and without addition of water), plus pure water. […] The samples were subjected to a series of heat/cool cycles (room temp […], 8 hour cycles). After 3 days, the samples were filtered and the solids were characterised by XRPD analysis.

[5] = Thermodynamic aqueous solubility; details: for solubility at 24 h: 25 °C, thermodynamic from solid; for solubility at 24 h / aqueous solubility: water; for final pH: pH of the aqueous suspension after equilibration; for aqueous solubility: 25° C., 24 hours
Procedure: Aqueous solubility was determined by suspending sufficient compound in water to give a maximum final concentration of 210 mg·ml^−1 of the parent free-form of the compound. The suspension was equilibrated at 25° C. for 24 hours then the pH was measured. The suspension was then filtered through a glass fibre C filter into a 96 well plate. The filtrate was then diluted by a factor of 101. Quantitation was by HPLC with reference to a standard solution of approximately 0.1 mg·ml^−1. in DMSO. Different volumes of the standard, diluted and undiluted sample solutions were injected. The solubility was calculated using the peak areas determined by integration of the peak found at the same retention time as the principal peak in the standard injection.
Analysis was performed on an Agilent HP1 100 series system equipped with a diode array detector and using ChemStation software vB.02.01-SR1.

[6] = Stability study: rate of hydration of anhydrous polymorph in methocel/Tween 80 test medium, XRPD; details: for Time points where transformation was observed: no seeds
Procedure: Test medium was prepared by dissolving methocel (4 g) in water (196 mL) to afford a 2% (w/w) solution. After stirring for 12 hours to ensure a homogenous solution is obtained, Tween 80 (800 mg) and water (600 mL) was added and the mixture stirred for an additional 12 hours to homogenise.
(§1) Test medium (30 mL) was added and each sample was maturated at the indicated temperature and condition (−20° C., 4° C., room temperature with stirring and room temperature without stirring). […] The samples were monitored over time by XRPD to determine the rate of hydration of the anhydrous polymorph.
as §1, with “(5” for “(30”

[7] = Acetonitrile, w/ water (5% v/v)
[8] = DCM, w/o water, RT-50° C. cycles
[9] = Ethyl acetate, w/ water (5% v/v)
[10] = nitromethane, w/ water (5% v/v)
[11] = 1 mg/mL, 20-25° C. (under stirring)
[12] = 1 mg/mL, 20-25° C. (without stirring)
[13] = 10 mg/mL, 20-25° C. (under stirring)
[14] = 10 mg/mL, 20-25° C. (without stirring)
[15] = listed as Fumiarate Pattern 2, fumarate

CN1CC=CCCOc2cccc(c2)C2=CC=NC(=Nc3cccc(c3)C1)N2.O=S(=O)(O)c1ccccc1 [Besylate Pattern 1, 14-methyl-20-oxa-5,7,14,27-tetraazatetracyclo-[19.3.1.12,6.18,12]heptacosa-1(25),2,4,6,8,10,12(26),16,21,23-decaene besylate]
XPRD stability after 40° C./75% RH 2 weeks ([1]; besylate): stable
XPRD stability after 40° C./75% RH 2 weeks ([1]; listed as Besylate pattern 1, besylate): No change

CN1CC=CCCOc2cccc(c2)C2=CC=NC(=Nc3cccc(c3)C1)N2.O=C(O)CC(O)(CC(=O)O)C(=O)O [Citrate Pattern 1, 14-methyl-20-oxa-5,7,14,27-tetraazatetracyclo-[19.3.1.12,6.18,12]heptacosa-1(25),2,4,6,8,10,12(26),16,21,23-decaene citrate]
stability in the solid state [2]: stable
changes in the XRPD pattern after the GVS experiment ([3]; citrate): no transformation; also recorded: between 0 and 90% relative humidity. No
XPRD Characterisation after maturation ([4]; Acetone, w/ water (5% v/v)): Citrate Pattern 1
XPRD Characterisation after maturation ([4]; Acetone, w/o water): Citrate Pattern 1
XPRD Characterisation after maturation [4, 7]: Citrate Pattern 2
XPRD Characterisation after maturation ([4]; Acetonitrile, w/o water): Citrate Pattern 1
XPRD Characterisation after maturation ([4]; DCM, w/ water (5% v/v)): Citrate Pattern 3
XPRD Characterisation after maturation [4, 8]: Citrate Pattern 1
XPRD Characterisation after maturation ([4]; EtOH, w/ water (5% v/v)): Citrate Pattern 1
XPRD Characterisation after maturation ([4]; EtOH, w/o water): Citrate Pattern 1
XPRD Characterisation after maturation [4, 9]: Citrate Pattern 2
XPRD Characterisation after maturation ([4]; Ethyl acetate, w/o water): Citrate Pattern 1
XPRD Characterisation after maturation ([4]; IPA, w/ water (5% v/v)): Citrate Pattern 1
XPRD Characterisation after maturation ([4]; IPA, w/o water): Citrate Pattern 1
XPRD Characterisation after maturation ([4]; TBME, w/ water (5% v/v)): Citrate Pattern 2
XPRD Characterisation after maturation ([4]; TBME, w/o water): Citrate Pattern 1
XPRD Characterisation after maturation ([4]; THF, w/ water (5% v/v)): Citrate Pattern 2
XPRD Characterisation after maturation ([4]; THF, w/o water): Citrate Pattern 1
XPRD Characterisation after maturation ([4]; Toluene, w/ water (5% v/v)): Citrate Pattern 2
XPRD Characterisation after maturation ([4]; Toluene, w/o water): Citrate Pattern 1
transformation after 3 days of maturation in dried solvents [4]: No transformation
XPRD Characterisation after maturation [4, 10]: Citrate Pattern 2
XPRD Characterisation after maturation ([4]; nitromethane, w/o water): Citrate Pattern 1
XPRD Characterisation after maturation ([4]; pure water): Citrate Pattern 2
solubility at 24 h [5]: 160 µg/mL
final pH [5]: 3.94
aqueous solubility [5]: 160 µg/mL
kinetics of hydration ([6]; comparison of citrate and fumarate salts): slower than for the fumarate salt
Time points where transformation was observed ([6]; 1 mg/mL, 4° C.): No
Time points where transformation was observed [6, 11]: 120 h
Time points where transformation was observed [6, 12]: Clear Solution
Time points where transformation was observed ([6]; 1 mg/mL, −20° C.): No
Time points where transformation was observed ([6]; 10 mg/mL, 4° C.): No
Time points where transformation was observed [6, 13]: 48 h
Time points where transformation was observed [6, 14]: No conversion
Time points where transformation was observed ([6]; 10 mg/mL, −20° C.): No
XPRD stability after 40° C./75% RH 2 weeks ([1]; citrate): not sensitive to humidity; also recorded: no transformation; also recorded: crystallinity, and no change was observed after
XPRD stability after 40° C./75% RH 2 weeks ([1]; listed as Citrate pattern 1, citrate): No change

CN1CC=CCCOc2cccc(c2)C2=CC=NC(=Nc3cccc(c3)C1)N2.O=C(O)/C=C/C(=O)O [Fumarate Pattern 1, 14-methyl-20-oxa-5,7,14,27-tetraazatetracyclo-[19.3.1.12,6.18,12]heptacosa-1(25),2,4,6,8,10,12(26),16,21,23-decaene fumarate]
XPRD stability after 40° C./75% RH 2 weeks ([1]; listed as Fumarate pattern 1, fumarate): No change

CN1CC=CCCOc2cccc(c2)C2=CC=NC(=Nc3cccc(c3)C1)N2.O=C(O)/C=C/C(=O)O [Fumarate Pattern 2, 14-methyl-20-oxa-5,7,14,27-tetraazatetracyclo-[19.3.1.12,6.18,12]heptacosa-1(25),2,4,6,8,10,12(26),16,21,23-decaene fumarate]
stability in the solid state [2]: stable
changes in the XRPD pattern after the GVS experiment ([3]; fumarate): no transformation
changes in the XRPD pattern after the GVS experiment [3, 15]: between 0 and 90% relative humidity. No
XPRD Characterisation after maturation ([4]; Acetone, w/ water (5% v/v)): Fumarate Pattern 2
XPRD Characterisation after maturation ([4]; Acetone, w/o water): Fumarate Pattern 2
XPRD Characterisation after maturation [4, 7]: Fumarate Pattern 2
XPRD Characterisation after maturation ([4]; Acetonitrile, w/o water): Fumarate Pattern 2
XPRD Characterisation after maturation ([4]; DCM, w/ water (5% v/v)): Fumarate Pattern 2
XPRD Characterisation after maturation [4, 8]: Fumarate Pattern 2
XPRD Characterisation after maturation ([4]; EtOH, w/ water (5% v/v)): Fumarate Pattern 2
XPRD Characterisation after maturation ([4]; EtOH, w/o water): Fumarate Pattern 2
XPRD Characterisation after maturation [4, 9]: Fumarate Pattern 1
XPRD Characterisation after maturation ([4]; Ethyl acetate, w/o water): Fumarate Pattern 2
XPRD Characterisation after maturation ([4]; IPA, w/ water (5% v/v)): Fumarate Pattern 2
XPRD Characterisation after maturation ([4]; IPA, w/o water): Fumarate Pattern 2
XPRD Characterisation after maturation ([4]; TBME, w/ water (5% v/v)): Fumarate Pattern 1
XPRD Characterisation after maturation ([4]; TBME, w/o water): Fumarate Pattern 2
XPRD Characterisation after maturation ([4]; THF, w/ water (5% v/v)): Fumarate Pattern 2
XPRD Characterisation after maturation ([4]; THF, w/o water): Fumarate Pattern 2
XPRD Characterisation after maturation ([4]; Toluene, w/ water (5% v/v)): Fumarate Pattern 1
XPRD Characterisation after maturation ([4]; Toluene, w/o water): Fumarate Pattern 2
transformation after 3 days of maturation in dried solvents [4]: No transformation
XPRD Characterisation after maturation [4, 10]: Fumarate Pattern 2
XPRD Characterisation after maturation ([4]; nitromethane, w/o water): Fumarate Pattern 2
XPRD Characterisation after maturation ([4]; pure water): Fumarate Pattern 1
solubility at 24 h [5]: 29 µg/mL
final pH [5]: 3.80
aqueous solubility [5]: 29 µg/mL
Time points where transformation was observed ([6]; 1 mg/mL, 4° C.): 120 h
Time points where transformation was observed [6, 11]: 24 h
Time points where transformation was observed [6, 12]: 48 h
Time points where transformation was observed ([6]; 1 mg/mL, −20° C.): 120 h
Time points where transformation was observed ([6]; 10 mg/mL, 4° C.): No
Time points where transformation was observed [6, 13]: 48 h
Time points where transformation was observed [6, 14]: 120 h
Time points where transformation was observed ([6]; 10 mg/mL, −20° C.): No
XPRD stability after 40° C./75% RH 2 weeks ([1]; fumarate): not sensitive to humidity
XPRD stability after 40° C./75% RH 2 weeks ([1]; listed as Fumarate pattern 2, fumarate): no transformation
XPRD stability after 40° C./75% RH 2 weeks ([1]; listed as Fumareate pattern 2, fumarate): No change
XPRD stability after 40° C./75% RH 2 weeks [1, 15]: crystallinity, and no change was observed after
